Assay [1] deals with T1, Human CD73 (amino acid residues 27-549) (Homo sapiens, UniProt P21589).
T1 construct: Human CD73 (amino acid residues 27-549); His tag (N); made in house; host or cells: E. coli
T1 sequence (P21589 27-549): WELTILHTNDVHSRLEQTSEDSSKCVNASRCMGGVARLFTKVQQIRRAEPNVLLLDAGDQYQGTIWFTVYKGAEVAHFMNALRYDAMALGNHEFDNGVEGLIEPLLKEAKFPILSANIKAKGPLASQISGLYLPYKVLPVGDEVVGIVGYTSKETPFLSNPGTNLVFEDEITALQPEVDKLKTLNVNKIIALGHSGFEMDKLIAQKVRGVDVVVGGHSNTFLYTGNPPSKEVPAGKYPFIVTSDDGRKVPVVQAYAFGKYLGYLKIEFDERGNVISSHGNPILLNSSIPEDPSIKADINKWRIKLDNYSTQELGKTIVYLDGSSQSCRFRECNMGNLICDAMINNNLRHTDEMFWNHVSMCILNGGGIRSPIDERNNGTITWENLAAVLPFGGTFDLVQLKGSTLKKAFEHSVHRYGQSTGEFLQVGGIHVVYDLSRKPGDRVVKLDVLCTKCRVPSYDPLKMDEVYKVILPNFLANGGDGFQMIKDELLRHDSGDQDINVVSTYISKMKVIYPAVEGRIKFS
The assay can be described thus: CD73 enzymatic assay (luciferase-based indirect assay, CellTiter-Glo). It is filed as biochemical. To be noted: 0.4 nM CD73, 150 μM AMP, 1 hour at room temperature. An outline of the steps: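 N-His human CD73 (27-549) expressed in E. coli, 0.4 nM, incubated with 150 μM AMP and compound in 50 mM HEPES pH 7.4, 0.01% Tween-20, 1 h at RT. Remaining AMP read via CellTiter-Glo luminescence with 1 μM ATP after 30 min; IC50 from nonlinear regression of % inhibition.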

A further assay deals with T2, human CD73 (Homo sapiens, UniProt P21589).
T2 construct: expressed in transfected cells
T2 sequence (P21589 27-549): T1 sequence (P21589 27-549)
Briefly: Inhibitor activity against CD73 in cell based assay (CD73 expressing CHO-K1 cells). The note with it: CHO-K1 cells expressing human CD73, 150 μM AMP, 4 hours of incubation; read-out: CHO-K1 CELL_VARIANT: CD73 IC50. An outline of the steps: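 Stable human CD73 CHO-K1 cells, 1×10^4/well, exposed to an 8-point 1:3 compound series (top 10 μM, 0.2% DMSO) plus 150 μM AMP for 4 h. Remaining AMP in the supernatant was read by CellTiter-Glo 2.0 luminescence with 1 μM ATP after 30 min at room temperature. IC50 came from nonlinear regression of % inhibition against cell and media-only controls.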

The structures appear in SMILES notation.

The IC50 is the midpoint of a concentration-inhibition curve.

With `COc1ccc2c(c1)cc(-c1ccnc(O[C@@H]3CCN(c4cn[nH]c(=O)c4Cl)C3)c1)n2C` [P-0108, (R)-4-chloro-5-(3-((4-(5-methoxy-1-methyl-1H-indol-2-yl)pyridin-2-yl)oxy)pyrrolidin-1-yl)pyridazin-3(2H)-one], the IC50 (in assay [1]; on human CD73) was 0.001 to 10 µM each time.
`CC(C)c1cc(Nc2cccnc2O[C@@H]2CCN(c3cn[nH]c(=O)c3Cl)C2)n(C)n1` [P-0109, (R)-4-chloro-5-(3-((3-((3-isopropyl-1-methyl-1H-pyrazol-5-yl)amino)pyridin-2-yl)oxy)pyrrolidin-1-yl)pyridazin-3(2H)-one]: the IC50 (in assay [1]; on human CD73) was 0.001 to 10 µM each time.
Turning to `O=c1[nH]ncc(N2CC[C@@H](Oc3ncccc3NC3CCC(F)(F)CC3)C2)c1Cl` [P-0110, (R)-4-chloro-5-(3-((3-((4,4-difluorocyclohexyl)amino)pyridin-2-yl)oxy)pyrrolidin-1-yl)pyridazin-3(2H)-one], the IC50 (in assay [1]; at human CD73) was 0.001 to 10 µM in each case.
In the case of `O=c1[nH]ncc(N2CC[C@@H](Oc3cc(N4[C@@H]5CC[C@H]4CC(F)(F)C5)ccn3)C2)c1Cl` [P-0111, 4-chloro-5-((R)-3-((4-((1R,5S)-3,3-difluoro-8-azabicyclo[3.2.1]octan-8-yl)pyridin-2-yl)oxy)pyrrolidin-1-yl)pyridazin-3(2H)-one], the IC50 in assay [1] fell in the range of 0.001 to 10 µM; at human CD73, 10 to 100 µM.
For `Cc1nn(CC2(C)COC2)c(C)c1-c1ccnc(O[C@@H]2CCN(c3cnn(CCO)c(=O)c3Cl)C2)c1` [P-0112, (R)-4-chloro-5-(3-((4-(3,5-dimethyl-1-((3-methyloxetan-3-yl)methyl)-1H-pyrazol-4-yl)pyridin-2-yl)oxy)pyrrolidin-1-yl)-2-(2-hydroxyethyl)pyridazin-3(2H)-one], in that order: 0.001 to 10 µM and 0.001 to 10 µM.
In the same order, the values of `Cc1nn(C)c(C)c1-c1ccnc(O[C@@H]2CCN(c3cn[nH]c(=O)c3)C2)c1` [P-0113, (R)-5-(3-((4-(1,3,5-trimethyl-1H-pyrazol-4-yl)pyridin-2-yl)oxy)pyrrolidin-1-yl)pyridazin-3(2H)-one] are 0.001 to 10 µM and 0.001 to 10 µM.
For `Cc1nn(C)c(C)c1-c1ccnc(O[C@@H]2CCN(c3cn[nH]c(=O)c3C#N)C2)c1` [P-0114, (R)-3-oxo-5-(3-((4-(1,3,5-trimethyl-1H-pyrazol-4-yl)pyridin-2-yl)oxy)pyrrolidin-1-yl)-2,3-dihydropyridazine-4-carbonitrile], in that order: 0.001 to 10 µM and 0.001 to 10 µM.
Take `Cc1nn(C)c(C)c1-c1cc(O[C@@H]2CCN(c3cnn(CCO)c(=O)c3Cl)C2)ncc1F` [P-0115, (R)-4-chloro-5-(3-((5-fluoro-4-(1,3,5-trimethyl-1H-pyrazol-4-yl)pyridin-2-yl)oxy)pyrrolidin-1-yl)-2-(2-hydroxyethyl)pyridazin-3(2H)-one]: the IC50 (in assay [1]; at human CD73) was 0.001 to 10 µM in each case.
Regarding `O=c1[nH]ncc(N2CC[C@@H](Oc3cc(C4=CCCCC4)ccn3)C2)c1Cl` [P-0116, (R)-4-chloro-5-(3-((4-(cyclohex-1-en-1-yl)pyridin-2-yl)oxy)pyrrolidin-1-yl)pyridazin-3(2H)-one], the IC50 (in assay [1]; at human CD73) was 0.001 to 10 µM in each case.
For `Cc1nn(C)c(C)c1-c1cc(O[C@@H]2CCN(c3cn[nH]c(=O)c3Cl)C2)c(F)cn1` [P-0117, (R)-4-chloro-5-(3-((5-fluoro-2-(1,3,5-trimethyl-1H-pyrazol-4-yl)pyridin-4-yl)oxy)pyrrolidin-1-yl)pyridazin-3(2H)-one], the IC50 (in assay [1]; at human CD73) was 0.001 to 10 µM throughout.
For the compound `Cc1noc(C)c1-c1cc(O[C@@H]2CCN(c3cn[nH]c(=O)c3Cl)C2)c(F)cn1` [P-0118, (R)-4-chloro-5-(3-((2-(3,5-dimethylisoxazol-4-yl)-5-fluoropyridin-4-yl)oxy)pyrrolidin-1-yl)pyridazin-3(2H)-one], the IC50 (in assay [1]; on human CD73) was 0.001 to 10 µM in each case.
As for `Cc1nn(C)c(C)c1-c1cc(O[C@H]2CN(c3cnn(CCO)c(=O)c3Cl)C[C@@H]2F)ccn1` [P-0119, 4-chloro-5-((3S,4S)-3-fluoro-4-((2-(1,3,5-trimethyl-1H-pyrazol-4-yl)pyridin-4-yl)oxy)pyrrolidin-1-yl)-2-(2-hydroxyethyl)pyridazin-3(2H)-one], the IC50 (in assay [1]; at human CD73) was 0.001 to 10 µM each time.
Take `Cc1noc(C)c1-c1cc(O[C@H]2CN(c3cnn(CCO)c(=O)c3Cl)C[C@@H]2F)ccn1` [P-0120, 4-chloro-5-((3S,4S)-3-((2-(3,5-dimethylisoxazol-4-yl)pyridin-4-yl)oxy)-4-fluoropyrrolidin-1-yl)-2-(2-hydroxyethyl)pyridazin-3(2H)-one]: the IC50 (in assay [1]; at human CD73) was 0.001 to 10 µM in each case.
Turning to `Cc1nn(C)c(C)c1-c1cc(O[C@H]2CN(c3cn[nH]c(=O)c3Cl)C[C@@H]2F)ccn1` [P-0121, 4-chloro-5-((3S,4S)-3-fluoro-4-((2-(1,3,5-trimethyl-1H-pyrazol-4-yl)pyridin-4-yl)oxy)pyrrolidin-1-yl)pyridazin-3(2H)-one], the IC50 (in assay [1]; at human CD73) was 0.001 to 10 µM each time.
As for `Cc1noc(C)c1-c1cc(O[C@H]2CN(c3cn[nH]c(=O)c3Cl)C[C@@H]2F)ccn1` [P-0122, 4-chloro-5-((3S,4S)-3-((2-(3,5-dimethylisoxazol-4-yl)pyridin-4-yl)oxy)-4-fluoropyrrolidin-1-yl)pyridazin-3(2H)-one], the IC50 (in assay [1]; on human CD73) was 0.001 to 10 µM in each case.
Regarding `Cc1noc(C)c1-c1cc(F)nc(O[C@@H]2CCN(c3cnn(CCO)c(=O)c3Cl)C2)c1` [P-0123, (R)-4-chloro-5-(3-((4-(3,5-dimethylisoxazol-4-yl)-6-fluoropyridin-2-yl)oxy)pyrrolidin-1-yl)-2-(2-hydroxyethyl)pyridazin-3(2H)-one], the IC50 (in assay [1]; on human CD73) was 0.001 to 10 µM each time.
With `COCc1noc(C)c1-c1cc(O[C@@H]2CCN(c3cnn(CCO)c(=O)c3Cl)C2)ncn1` [P-0124, (R)-4-chloro-2-(2-hydroxyethyl)-5-(3-((6-(3-(methoxymethyl)-5-methylisoxazol-4-yl)pyrimidin-4-yl)oxy)pyrrolidin-1-yl)pyridazin-3(2H)-one], the IC50 (in assay [1]; at human CD73) was 0.001 to 10 µM throughout.
With `COCc1noc(C)c1-c1cc(O[C@@H]2CCN(c3cn[nH]c(=O)c3Cl)C2)ncn1` [P-0125, (R)-4-chloro-5-(3-((6-(3-(methoxymethyl)-5-methylisoxazol-4-yl)pyrimidin-4-yl)oxy)pyrrolidin-1-yl)pyridazin-3(2H)-one], the IC50 (in assay [1]; at human CD73) was 0.001 to 10 µM each time.
For `Cc1nn(C)c(C)c1-c1ccnc(O[C@@H]2CCN(c3cnn(CC(C)O)c(=O)c3Cl)C2)c1` (stereo partly drawn) [P-0126, 4-chloro-2-(2-hydroxypropyl)-5-((R)-3-((4-(1,3,5-trimethyl-1H-pyrazol-4-yl)pyridin-2-yl)oxy)pyrrolidin-1-yl)pyridazin-3(2H)-one], the IC50 (in assay [1]; on human CD73) was 0.001 to 10 µM in each case.
For the compound `Cc1nn(C)c(C)c1-c1ccnc(O[C@@H]2CCN(c3cnn(CCCO)c(=O)c3Cl)C2)c1` [P-0127, (R)-4-chloro-2-(3-hydroxypropyl)-5-(3-((4-(1,3,5-trimethyl-1H-pyrazol-4-yl)pyridin-2-yl)oxy)pyrrolidin-1-yl)pyridazin-3(2H)-one], the IC50 (in assay [1]; on human CD73) was 0.001 to 10 µM in each case.
Turning to `Cc1nn(C)c(C)c1-c1cc(O[C@@H]2CCN(c3cnn(CCO)c(=O)c3Cl)C2)ncn1` [P-0128, (R)-4-chloro-2-(2-hydroxyethyl)-5-(3-((6-(1,3,5-trimethyl-1H-pyrazol-4-yl)pyrimidin-4-yl)oxy)pyrrolidin-1-yl)pyridazin-3(2H)-one], the IC50 (in assay [1]; on human CD73) was 0.001 to 10 µM in each case.
Consider `Cc1noc(C)c1-c1cc(O[C@H]2CN(c3cnn(CC(O)CO)c(=O)c3Cl)C[C@@H]2F)ncc1F` (stereo partly drawn) [P-0129, 4-chloro-2-(2,3-dihydroxypropyl)-5-((3S,4S)-3-((4-(3,5-dimethylisoxazol-4-yl)-5-fluoropyridin-2-yl)oxy)-4-fluoropyrrolidin-1-yl)pyridazin-3(2H)-one], for which the IC50 (in assay [1]; at human CD73) was 0.001 to 10 µM throughout.
With `Cc1nn(CC2(F)COC2)c(C)c1-c1ccnc(O[C@@H]2CCN(c3cn[nH]c(=O)c3Cl)C2)c1` [P-0130, (R)-4-chloro-5-(3-((4-(1-((3-fluorooxetan-3-yl)methyl)-3,5-dimethyl-1H-pyrazol-4-yl)pyridin-2-yl)oxy)pyrrolidin-1-yl)pyridazin-3(2H)-one], the IC50 (in assay [1]; at human CD73) was 0.001 to 10 µM each time.

These data come from patent US12202818B2, “Compounds and methods for CD73 modulation and indications therefor” (Opna Bio SA, priority 2020, dated 2025).
